# Source: US20260232642A1, “RNA-BINDING MOLECULES WITH A SMALL CORE SCAFFOLD (R-SCORE) AND USES THEREOF” (Max-Planck-Gesellschaft zur Förderung der Wissenschaften …, priority 2022, published 2026)
# Like-named read-outs stand apart in the source and are kept apart here.
# Assays:
# JAR cells = test: MTT assay, JAR; type: cell-based, human; conditions: 72 h, choriocarcinoma cell line, read-out: Cell lines IC50 [μM] JAR
# Protocol: (§1) MAD-MB-231, MCF-7 and JAR cells were cultured in Dulbecco's modified Eagle's (DMEM) medium supplemented with 10% Fetal Bovine Serum (FBS), 100 u/mL penicillin-streptomycin. Jurkat, Molt-4 and Ramos cells were cultured in Roswell Park Memorial Institute (RPMI) 1640 medium with 10% Fetal Bovine Serum (FBS), 100 u/mL penicillin-streptomycin. All cell lines grown in an incubator with humidified 5% CO2 at 37° C.
# (§2) Jurkat, Molt-4 and Ramos cells were collected and seeded into 96-well plates at a density of 8000-10000 per well and treated with compounds. MCF-7, MDA-MB-231 and JAR cells were collected and seeded into 96-well plates at a density of 2000-3000 per well and cultured overnight to adherent before treat with compounds. After exposed to increasing concentrations of compounds for 72 h, the cells in each well were mixed with 20 μL of 5 mg/ml MTT (3-(4,5-dimethylthiazol-2-yl)-2,5-diphenyltetrazolium bromide) for 2 h, then add 50 μL of 20% SDS/0.01 M HCl incubated overnight, and detected the absorbance at a wavelength of 570 nm.
# (§3) Inhibition rate was calculated using the equation: […]
# (§4) The IC50 values were calculated by using GraphPad Prism 9 software fitting to a dose-response inhibition equation.
# [1] = tested on: precursor microRNA-21 hairpin (pre-miR-21 hp); test: Differential scanning fluorimetry (DSF), pre-miR-21 hairpin; type: binding; conditions: 60 uM compound, 1 μM hairpin in PBS, Tm of compound minus Tm of DMSO control
# Protocol: (§5) To measure the binding between compounds and precursor microRNA-21 hairpin (pre-miR-21 hp) or precursor microRNA-17 hairpin (pre-miR-17 hp), DSF was performed as previously described with modification (ACS Chem. Biol. 2017, 12, 2, 435-443). Precursor microRNA hairpin was dissolved in PBS and annealed by briefly heating to 95° C. for 3 min and slowly cooling to rt. Assay was performed in duplicates using white qPCR 8-strips (VWR) with a total volume of 10 μL in PBS. The total reaction consisted of 1 μM precursor microRNA hairpin, 1% test compound (DMSO dilution) and 2×SYBR GreenII (Thermo Fisher Scientific). Compounds were incubated with precursor microRNA hairpin at for 10 min at rt, then SYBR GreenII was added to each well, mixed and incubated 10 min at rt. The strips were spined and loaded to the RT-PCR detection system (BIO-RAD CFX Connect), the fluorescence intensity was obtained every 1° C. for 30 s in the range of 20° C. to 80° C.
# (§6) The melting temperature (Tm) was determined by the maximum of the negative of the first derivative of the fluorescence vs temperature melting curves. The ΔTm was calculated by the Tm value of compound subtract the Tm value of the DMSO control.
# [2] = tested on: precursor microRNA-17 hairpin (pre-miR-17 hp); test: Differential scanning fluorimetry (DSF), pre-miR-17 hairpin; type: binding; conditions: 60 uM compound, 1 μM hairpin in PBS, Tm of compound minus Tm of DMSO control
# Protocol: as §5, §6
# Molt-4 cells = test: MTT assay, Molt-4; type: cell-based, human; conditions: acute leukemia cell line, read-out: Cell lines IC50 [μM] Molt-4
# Protocol: as §1, §2, §3, §4
# Ramos cells = test: MTT assay, Ramos; type: cell-based, human; conditions: 72 h, Burkitt lymphoma cell line, read-out: Cell lines IC50 [μM] Ramos
# Protocol: as §1, §2, §3, §4
# Jurkat cells = test: MTT assay, Jurkat; type: cell-based, human; conditions: 72 h, acute leukemia cell line, read-out: Cell lines IC50 [μM] Jurkat
# Protocol: as §1, §2, §3, §4
# MCF-7 cells = test: MTT assay, MCF-7; type: cell-based, human; conditions: breast cancer cell line, read-out: Cell lines IC50 [μM] MCF-7
# Protocol: as §1, §2, §3, §4
# MDA-MB-231 cells = test: MTT assay, MDA-MB-231; type: cell-based, human; conditions: breast cancer cell line, read-out: Cell lines IC50 [μM] MDA-MB-231
# Protocol: as §1, §2, §3, §4
Molecule,"IC50 (Molt-4 cells; Homo sapiens, MOLT-4, 72 h) [µM]","IC50 (Ramos cells; Homo sapiens, Ramos) [µM]","IC50 (Jurkat cells; Homo sapiens, Jurkat) [µM]","IC50 (MCF-7 cells; Homo sapiens, MCF7, 72 h) [µM]","IC50 (MDA-MB-231 cells; Homo sapiens, MDA-MB-231, 72 h) [µM]",IC50 (Molt-4 cells; 72 h) [µM],IC50 (Jurkat cells) [µM],IC50 (MCF-7 cells; 72 h) [µM],IC50 (MDA-MB-231 cells; 72 h) [µM],IC50 (Ramos cells) [µM],IC50 (JAR cells; Homo sapiens) [µM],ΔTm (pre-miR-21 hp) @60 uM [° C.] [1] [°C],ΔTm (pre-miR-17 hp) @60 uM [° C.] [2] [°C],IC50 (JAR cells) [µM]
"N#CC1C(c2ccc(-c3ccc(C(F)(F)F)cc3)cc2)C(CO)N1C(=O)c1ccc(NC(=O)c2sc3ncccc3c2N)cc1 (stereo not shown) [Compound A1, 1-(1-amino-(3-aminothieno[2,3-b]pyridine-2-carbonyl)phenyl-4-carbonyl)-4-(hydroxymethyl)-3-(4′-(trifluoromethyl)-[1,1′-biphenyl]-4-yl) azetidine-2-carbonitrile]",2.91,4.81,2.81,5.95,10,–,–,–,–,–,2.95,−2,−3,–
"CCCN1C(CO)C(c2ccc(-c3ccc4nc[nH]c4c3)cc2)C1CNC(=O)c1sc2ncccc2c1N (stereo not shown) [Compound A8, N-((3-(4-(1H-benzo[d]imidazol-6-yl)phenyl)-4-(hydroxymethyl)-1-propylazetidin-2-yl)methyl)-3-aminothieno[2,3-b]pyridine-2-carboxamide]",8.5,26.8,19.1,–,–,–,–,–,–,–,–,–,–,–
"CCCN1C(CO)C(c2ccc(-c3ccc4nc[nH]c4c3)cc2)C1CNC(=O)c1sc2ncccc2c1N (stereo not shown) [Compound A9, N-((3-(4-(1H-benzo[d]imidazol-6-yl)phenyl)-4-(hydroxymethyl)-1-propylazetidin-2-yl)methyl)-3-aminothieno[2,3-b]pyridine-2-carboxamide]",–,–,–,> 20,> 20,11.4,> 20,–,–,> 20,9.56,0,0,–
"CCCN1C(CO)C(c2ccc(-c3ccc(C(F)(F)F)cc3)cc2)C1CNC(=O)c1sc2ncccc2c1N (stereo not shown) [Compound A5, 3-amino-N-((4-(hydroxymethyl)-1-propyl-3-(4′-(trifluoromethyl)-[1,1′-biphenyl]-4-yl)azetidin-2-yl)methyl) thieno[2,3-b]pyridine-2-carboxamide]",5.49,5.05,5.13,–,–,–,–,–,–,–,–,–,–,–
"N#CC1C(c2ccc(-c3ccc(C(F)(F)F)cc3)cc2)C(CO)N1C(=O)c1sc2ncccc2c1N (stereo not shown) [Compound A2, 1-(3-aminothieno[2,3-b]pyridine-2-carbonyl)-4-(hydroxymethyl)-3-(4′-(trifluoromethyl)-[1,1 biphenyl]-4-yl) azetidine-2-carbonitrile]",–,–,–,–,–,4.61,3.35,–,–,3.8,–,−2.5 ± 0.5,−2,3.41
"3-(4-(1H-benzo[d]imidazol-6-yl)phenyl)-1-(3-aminothieno[2,3-b]pyridine-2-carbonyl)-4-(hydroxymethyl)azetidine-2-carbonitrile [Compound A7]",–,–,–,–,–,–,–,> 20,> 20,–,–,0,0,5.74
"N#CC1C(c2ccc(-c3ccc(C(F)(F)F)cc3)cc2)C(CO)N1C(=O)c1sc2ncccc2c1N (stereo not shown) [Compound A3, 1-(3-aminothieno[2,3-b]pyridine-2-carbonyl)-4-(hydroxymethyl)-3-(4′-(trifluoromethyl)-[1,1′-biphenyl]-4-yl) azetidine-2-carbonitrile]",–,7.03,3.73,6.22,18.6,10.8,–,–,–,–,–,−6,−6.5 ± 0.5,9.75
"CCCN1C(CO)C(c2ccc(-c3ccc(C(F)(F)F)cc3)cc2)C1CNC(=O)c1sc2ncccc2c1N (stereo not shown) [Compound A4, 3-amino-N-((4-(hydroxymethyl)-1-propyl-3-(4′-(trifluoromethyl)-[1,1′-biphenyl]-4-yl)azetidin-2-yl)methyl) thieno[2,3-b]pyridine-2-carboxamide]",–,–,–,–,–,–,–,5.79,7.02,–,–,−2,−1,2.3

# More lines, main results first:
"IC50 (Molt-4 cells; Homo sapiens, MOLT-4, 72 h) [µM]","IC50 (Ramos cells; Homo sapiens, Ramos) [µM]","IC50 (Jurkat cells; Homo sapiens, Jurkat) [µM]","IC50 (MCF-7 cells; Homo sapiens, MCF7, 72 h) [µM]","IC50 (MDA-MB-231 cells; Homo sapiens, MDA-MB-231, 72 h) [µM]",IC50 (Molt-4 cells; 72 h) [µM],IC50 (Jurkat cells) [µM],IC50 (MCF-7 cells; 72 h) [µM],IC50 (MDA-MB-231 cells; 72 h) [µM],IC50 (Ramos cells) [µM],Molecule,IC50 (JAR cells; Homo sapiens) [µM],ΔTm (pre-miR-21 hp) @60 uM [° C.] [1] [°C],ΔTm (pre-miR-17 hp) @60 uM [° C.] [2] [°C],IC50 (JAR cells) [µM]
–,8.27,–,–,–,12.1,11.2,8.24,10.8,–,"CNc1nc(N2CC(c3ccc(-c4ccc5nc[nH]c5c4)cc3)C2C#N)nc2ccccc12 (stereo not shown) [Compound B10, 3-(4-(1H-benzo[d]imidazol-6-yl)phenyl)-1-(4-(methylamino)quinazolin-2-yl) azetidine-2-carbonitrile]",–,0,0,4.78
10.6,12.4,7.3,–,> 20,–,–,12.5,–,–,"Cc1noc(C)c1-c1ccc(C2CN(C(=O)c3sc4ncccc4c3N)C2C#N)cc1 (stereo not shown) [Compound B4, 1-(3-aminothieno[2,3-b]pyridine-2-carbonyl)-3-(4-(3,5-dimethylisoxazol-4-yl)phenyl) azetidine-2-carbonitrile]",–,0,0,5.92
–,–,–,–,–,–,–,5.72,12.5,–,"Cc1noc(C)c1-c1ccc(C2CN(C(=O)c3sc4ncccc4c3N)C2C#N)cc1 (stereo not shown) [Compound B3, 1-(3-aminothieno[2,3-b]pyridine-2-carbonyl)-3-(4-(3,5-dimethylisoxazol-4-yl)phenyl) azetidine-2-carbonitrile]",–,–,–,1.28
7.01,–,6.31,9.92,14.4,–,–,–,–,7.35,"CNc1nc(N2CC(c3ccc(-c4c(C)noc4C)cc3)C2C#N)nc2ccccc12 (stereo not shown) [Compound B1, 3-(4-(3,5-dimethylisoxazol-4-yl)phenyl)-1-(4-(methylamino)quinazolin-2-yl) azetidine-2-carbonitrile]",1.74,0,0,–
13.9,6.61,7.42,–,–,–,–,–,–,–,"N#CC1C(c2ccc(-c3ccc(C(F)(F)F)cc3)cc2)CN1C(=O)c1sc2ncccc2c1N (stereo not shown) [Compound B7, 1-(3-aminothieno[2,3-b]pyridine-2-carbonyl)-3-(4′-(trifluoromethyl)-[1,1′-biphenyl]-4-yl) azetidine-2-carbonitrile]",1.5,–,–,1.16
4.79,1.82,5.47,5.23,7.07,–,–,–,–,–,"CNc1nc(N2CC(C3(C(F)(F)F)C=CC(c4ccccc4)=CC3)C2C#N)nc2ccccc12 (stereo not shown) [Compound B6, 1-(4-(methylamino)quinazolin-2-yl)-3-(4 (trifluoromethyl)-[1,1′-biphenyl]-4-yl) azetidine-2-carbonitrile]",1.29,–,1.25,–
